From ChEMBL document CHEMBL5137035 (Eur J Med Chem, 2022)

Tests used:
[1] = molecular target: T1, Dihydroorotate dehydrogenase (quinone), mitochondrial (Homo sapiens, UniProt Q02127); assay: Inhibition of human N-terminal SUMO-tagged DHODH expressed in Escherichia coli BL21(DE3) at 1 uM using dihydroorotate as substrate by DCIP based microplate reader analysis relative to control
[2] = molecular target: T1, Dihydroorotate dehydrogenase (quinone), mitochondrial; assay: Inhibition of human N-terminal SUMO-tagged DHODH expressed in Escherichia coli BL21(DE3) at 100 nM using dihydroorotate as substrate by DCIP based microplate reader analysis relative to control
[3] = molecular target: T1, Dihydroorotate dehydrogenase (quinone), mitochondrial; assay: Inhibition of human N-terminal SUMO-tagged DHODH expressed in Escherichia coli BL21(DE3) using dihydroorotate substrate by DCIP based microplate reader analysis
[4] = Toxicity in BALB/c mouse xenografted with HCT-116 cells assessed as side effect at 30 mg/kg, po and measured at 18 day; assay type: organism-based; details: in vivo, 432 h
[5] = Toxicity in BALB/c mouse xenografted with HCT-116 cells assessed as animal death at 30 mg/kg, po and measured at 18 day; assay type: organism-based; details: in vivo, 432 h
Raji = assay: Antiproliferative activity against human Raji cells assessed as cell growth inhibition measured after 96 hrs by MTT assay; assay type: functional, cell-based
HCT-116 [6] = assay: Antiproliferative activity against human HCT-116 cells expressing human DHODH assessed as reduction in cell viability measured after 96 hrs by MTT assay; assay type: functional, cell-based; details: HCT-116, 96 h
[7] = Acute toxicity in BALB/c mouse assessed as animal death at 400 mg/kg, po measured at 2 days; assay type: organism-based; details: in vivo, 48 h, time 2 day
[8] = Toxicity in BALB/c mouse assessed as adverse effect at 400 mg/kg, po measured for 14 days; assay type: organism-based; details: in vivo, 336 h, time 14 day
[9] = Hepatotoxicity in BALB/c mouse assessed as change in blood ALP level at 400 mg/kg, po measured after 14 days by biochemical assay; assay type: toxicity, organism-based; details: in vivo, 336 h, time 14 day
[10] = Renal toxicity in BALB/c mouse assessed as change in blood uric acid level at 400 mg/kg, po measured after 14 days by biochemical assay; assay type: organism-based; details: in vivo, 336 h, time 14 day
[11] = Toxicity in BALB/c mouse assessed as histopathological changes in heart at 400 mg/kg, po measured after 14 days by H and E staining analysis; assay type: organism-based; details: in vivo, 336 h, time 14 day
[12] = Toxicity in BALB/c mouse assessed as histopathological changes in liver at 400 mg/kg, po measured after 14 days by H and E staining analysis; assay type: organism-based; details: in vivo, 336 h, time 14 day
[13] = Toxicity in BALB/c mouse assessed as histopathological changes in spleen at 400 mg/kg, po measured after 14 days by H and E staining analysis; assay type: organism-based; details: in vivo, 336 h, time 14 day
[14] = Toxicity in BALB/c mouse assessed as histopathological changes in lungs at 400 mg/kg, po measured after 14 days by H and E staining analysis; assay type: organism-based; details: in vivo, 336 h, time 14 day
[15] = Toxicity in BALB/c mouse assessed as histopathological changes in kidney at 400 mg/kg, po measured after 14 days by H and E staining analysis; assay type: organism-based; details: in vivo, 336 h, time 14 day
HCT-116 [16] = assay: Antitumor activity against human HCT-116 cells xenografted in nude mouse assessed as tumor growth inhibition at 30 mg/kg, po; assay type: functional; details: read-out: TGI
A-375 = assay: Antiproliferative activity against human A375 cells expressing human DHODH assessed as reduction in cell viability measured after 96 hrs by MTT assay; assay type: functional, cell-based; details: A-375, 96 h
Kasumi 1 = assay: Antiproliferative activity against human Kasumi 1 cells expressing human DHODH assessed as reduction in cell viability measured after 96 hrs by MTT assay; assay type: functional, cell-based; details: Kasumi 1, 96 h
KG-1 = assay: Antiproliferative activity against human KG-1 cells expressing human DHODH assessed as reduction in cell viability measured after 96 hrs by MTT assay; assay type: functional, cell-based; details: KG-1, 96 h
U-937 = assay: Antiproliferative activity against human U-937 cells expressing human DHODH assessed as reduction in cell viability measured after 96 hrs by MTT assay; assay type: functional, cell-based; details: U-937, 96 h
SUD4 = assay: Antiproliferative activity against human SU-DHL-4 cells expressing human DHODH assessed as reduction in cell viability measured after 96 hrs by MTT assay; assay type: functional, cell-based; details: SU-DHL-4, 96 h
[17] = Cytotoxicity against human HL7702 cells expressing human DHODH assessed as reduction in cell viability measured after 96 hrs by MTT assay; assay type: toxicity, cell-based; details: HL7702 (L02) cells expressing human DHODH
[18] = Cytotoxicity against human HCoEpiC cells expressing human DHODH assessed as reduction in cell viability measured after 96 hrs by MTT assay; assay type: toxicity, cell-based
[19] = Acute toxicity in BALB/c mouse assessed as average body weight at 300 mg/kg, po measured after 14 days; assay type: organism-based; details: in vivo, 336 h, time 14 day
[20] = Hepatotoxicity in BALB/c mouse assessed as change in blood ALP level at 300 mg/kg, po measured after 14 days by biochemical assay; assay type: toxicity, organism-based; details: in vivo, 336 h, time 14 day
[21] = Hepatotoxicity in BALB/c mouse assessed as change in blood ALT level at 300 mg/kg, po measured after 14 days by biochemical assay; assay type: toxicity, organism-based; details: in vivo, 336 h, time 14 day
[22] = Hepatotoxicity in BALB/c mouse assessed as change in blood AST level at 300 mg/kg, po measured after 14 days by biochemical assay; assay type: toxicity, organism-based; details: in vivo, 336 h, time 14 day
[23] = Renal toxicity in BALB/c mouse assessed as change in blood uric acid level at 300 mg/kg, po measured after 14 days by biochemical assay; assay type: organism-based; details: in vivo, 336 h, time 14 day
[24] = Acute toxicity in BALB/c mouse assessed as decrease in body weight at 300 mg/kg, po measured for 14 days; assay type: organism-based; details: in vivo, 336 h, time 14 day
[25] = Toxicity in BALB/c mouse assessed as animal death at 300 mg/kg, po measured for 14 days; assay type: organism-based; details: in vivo, 336 h, time 14 day

T1 sequence (Q02127 whole entry): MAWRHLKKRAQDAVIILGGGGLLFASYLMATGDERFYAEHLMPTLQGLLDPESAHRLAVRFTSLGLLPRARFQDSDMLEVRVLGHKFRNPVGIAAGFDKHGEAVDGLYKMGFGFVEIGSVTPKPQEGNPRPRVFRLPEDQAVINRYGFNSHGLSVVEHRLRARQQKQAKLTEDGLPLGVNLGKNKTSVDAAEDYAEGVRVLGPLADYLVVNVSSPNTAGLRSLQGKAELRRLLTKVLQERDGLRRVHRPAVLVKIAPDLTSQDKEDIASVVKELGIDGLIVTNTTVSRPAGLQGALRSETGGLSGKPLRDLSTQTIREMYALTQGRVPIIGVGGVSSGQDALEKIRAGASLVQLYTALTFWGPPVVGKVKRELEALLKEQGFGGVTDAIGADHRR

SMILES | inhibition [1] [%] | inhibition [2] [%] | IC50 [3] [nM] | other results
CCC(C)Oc1cc(NC(=O)/C(C#N)=C(/C)O)c(F)cc1-c1ccc(F)cc1 (centres undefined) | 96.1 | 72.5 | 37.8 | 
C/C(O)=C(\C#N)C(=O)Nc1cc(OC(C)C)c(-c2cccc(C(F)(F)F)c2)cc1F |  |  | 10.2 | Activity [4]: Non-Toxic; Activity [5]: Non-Toxic; IC50 (Raji): 70.1 nM; IC50 (HCT-116 [6]): 300 nM; Activity [7]: Toxic; Activity [8]: Non-Toxic; Activity [9]: Toxic; Activity [10]: Toxic; Activity [11]: Non-Toxic; Activity [12]: Non-Toxic; Activity [13]: Non-Toxic; Activity [14]: Non-Toxic; Activity [15]: Non-Toxic; inhibition in vivo at 30 mg/kg (HCT-116 [16]): 54.4%
CCC(C)Oc1cc(NC(=O)/C(C#N)=C(/C)O)c(F)cc1-c1ccc(F)nc1 (centres undefined) | 89.7 | 52.3 |  | 
CCOc1cc(NC(=O)/C(C#N)=C(/C)O)c(F)cc1-c1cccc(OC)c1 | 93.1 | 65.2 | 41.4 | 
COc1cccc(-c2cc(F)c(NC(=O)/C(C#N)=C(/C)O)cc2OCc2ccccc2F)c1 | 89.8 | 48.3 |  | 
COc1cccc(-c2cc(F)c(NC(=O)/C(C#N)=C(/C)O)cc2OCC(C)C)c1 | 96.2 | 77.6 | 30.1 | 
CCC(C)Oc1cc(NC(=O)/C(C#N)=C(/C)O)c(F)cc1-c1cccc(C(F)(F)F)c1 (centres undefined) | 99.3 | 92.4 | 7.9 | IC50 (Raji): 45.5 nM; IC50 (A-375): 500 nM; IC50 (HCT-116 [6]): 270 nM; IC50 (Kasumi 1): 500 nM; IC50 (KG-1): 990 nM; IC50 (U-937): 560 nM; IC50 (SUD4): 300 nM; IC50 at 96 h [17]: > 10000 nM; IC50 at 96 h [18]: > 10000 nM; Activity [19]: 17.3 g; Activity [20]: Toxic; Activity [21]: Toxic; Activity [22]: Toxic; Activity [23]: Toxic
CCC(CC)Oc1cc(NC(=O)/C(C#N)=C(/C)O)c(F)cc1-c1cccc(OC)c1 | 98.1 | 84.6 | 16.4 | 
COc1cccc(-c2cc(F)c(NC(=O)/C(C#N)=C(/C)O)cc2OC)c1 | 91.8 | 57.7 | 52.1 | 
CCC(C)Oc1cc(NC(=O)/C(C#N)=C(/C)O)c(F)cc1-c1cc2ccccc2o1 (centres undefined) | 97.4 | 89.9 | 12.9 | 
COc1cccc(-c2cc(F)c(NC(=O)/C(C#N)=C(/C)O)cc2OCC2CCCCC2)c1 | 93.6 | 64 | 43.1 | 
CCCOc1cc(NC(=O)/C(C#N)=C(/C)O)c(F)cc1-c1cccc(OC)c1 | 93.6 | 68.2 | 34.6 | 
COc1cccc(-c2cc(F)c(NC(=O)/C(C#N)=C(/C)O)cc2OC(C)C)c1 | 96.6 | 87.7 | 13.9 | IC50 (Raji): 980 nM
CCC(C)Oc1cc(NC(=O)/C(C#N)=C(/C)O)c(F)cc1-c1cccc(Cl)c1C (centres undefined) | 98 | 85.3 | 22.2 | 
C=CCOc1cc(NC(=O)/C(C#N)=C(/C)O)c(F)cc1-c1cccc(OC)c1 | 92.5 | 58.5 |  | 
CCC(C)Oc1cc(NC(=O)/C(C#N)=C(/C)O)c(F)cc1-c1cccc(Cl)c1 (centres undefined) | 98.9 | 87.5 | 20.1 | 
CCC(C)Oc1cc(NC(=O)/C(C#N)=C(/C)O)c(F)cc1-c1ccnc(F)c1 (centres undefined) | 98.5 | 87.7 | 20.3 | 
CCC(C)Oc1cc(NC(=O)/C(C#N)=C(/C)O)c(F)cc1-c1ccc(F)c(F)c1 (centres undefined) | 97.5 | 80.1 | 30.4 | 
CCC(C)Oc1cc(NC(=O)/C(C#N)=C(/C)O)c(F)cc1-c1ccccc1 (centres undefined) | 96.9 | 80.4 | 28.9 | 
CCC(C)Oc1cc(NC(=O)/C(C#N)=C(/C)O)c(F)cc1-c1ccc2c(c1)OCO2 (centres undefined) | 96.9 | 83.1 | 28.8 | 

SMILES | inhibition [1] [%] | inhibition [2] [%] | IC50 [3] [nM] | other results
CCC(C)Oc1cc(NC(=O)/C(C#N)=C(/C)O)c(F)cc1-c1cccc2ccccc12 (centres undefined) | 99.7 | 95 | 9.8 | IC50 (Raji): 215 nM
CCCC(C)Oc1cc(NC(=O)/C(C#N)=C(/C)O)c(F)cc1-c1cccc(OC)c1 (centres undefined) | 98.4 | 86.5 | 14.4 | 
COc1cccc(-c2ccc(NC(=O)/C(C#N)=C(/C)O)cc2OC)c1 | 89.2 | 48.4 |  | 
CCC(C)Oc1cc(NC(=O)/C(C#N)=C(/C)O)c(F)cc1-c1ccc(C(F)(F)F)cc1 (centres undefined) | 77.2 | 34.1 |  | 
CCC(C)Oc1cc(NC(=O)/C(C#N)=C(/C)O)c(F)cc1-c1cccc(F)c1C (centres undefined) | 97.8 | 82.5 | 26.1 | 
COc1cccc(-c2cc(F)c(Nc3ncccc3C(=O)O)c(F)c2)c1 [ASLAN-003] |  |  |  | IC50 (Raji): 270 nM
CCC(C)Oc1cc(NC(=O)/C(C#N)=C(/C)O)c(F)cc1-c1cccc(OC)c1 (centres undefined) | 99.2 | 91.2 | 9.2 | IC50 (Raji): 610 nM
CCC(C)Oc1cc(NC(=O)/C(C#N)=C(/C)O)c(F)cc1-c1ccc2ccccc2c1 (centres undefined) | 99.8 | 95.6 | 6.6 | IC50 (Raji): 18.8 nM; IC50 (A-375): 270 nM; IC50 (HCT-116 [6]): 150 nM; IC50 (Kasumi 1): 130 nM; IC50 (KG-1): 620 nM; IC50 (U-937): 200 nM; IC50 (SUD4): 160 nM; IC50 at 96 h [17]: 6480 nM; IC50 at 96 h [18]: 4710 nM; Activity [24]: Toxic; Activity [25]: Toxic
CCC(C)Oc1cc(NC(=O)/C(C#N)=C(/C)O)c(F)cc1-c1cc(F)cc(F)c1 (centres undefined) | 98.8 | 85.1 | 22.6 | 
C=C(C)COc1cc(NC(=O)/C(C#N)=C(/C)O)c(F)cc1-c1cccc(OC)c1 | 92.9 | 58.6 |  | 
CCC(C)Oc1cc(NC(=O)/C(C#N)=C(/C)O)c(F)cc1-c1ccc(OC)cc1 (centres undefined) | 94.7 | 72.1 | 39.8 | 
COc1cccc(-c2cc(F)c(NC(=O)/C(C#N)=C(/C)O)cc2OCc2c(F)cccc2Cl)c1 | 79.7 | 40.3 |  | 
CCC(C)Oc1cc(NC(=O)/C(C#N)=C(/C)O)c(F)cc1-c1ccccc1Cl (centres undefined) | 98.8 | 86.3 | 21.8 | 
CCC(C)Oc1cc(NC(=O)/C(C#N)=C(/C)O)c(F)cc1-c1cccc(OC(F)(F)F)c1 (centres undefined) | 99.2 | 92.4 | 10.9 | IC50 (Raji): 130 nM
CCC(C)Oc1cc(NC(=O)/C(C#N)=C(/C)O)c(F)cc1-c1ccccc1F (centres undefined) | 97.3 | 82.9 | 27.3 | 
CCC(C)Oc1cc(NC(=O)/C(C#N)=C(/C)O)c(F)cc1-c1cccc(F)c1 (centres undefined) | 97.2 | 83.6 | 26.8 | 
C/C(O)=C(\C#N)C(=O)Nc1ccc(C(F)(F)F)cc1 | 71.2 |  |  | 
CCC(C)Oc1cc(NC(=O)/C(C#N)=C(/C)O)c(F)cc1-c1ccc(Cl)cc1 (centres undefined) | 95.4 | 68.5 | 33.3 | 
CCC(C)Oc1cc(NC(=O)/C(C#N)=C(/C)O)c(F)cc1-c1cc(Cl)ccc1C (centres undefined) | 85.5 | 47.2 |  | 
CCC(C)Oc1cc(NC(=O)/C(C#N)=C(/C)O)c(F)cc1-c1ccccc1C (centres undefined) | 96.6 | 78.6 | 31 | 
